Target: Chymotrypsinogen A (Bos taurus) (UniProt P00766)
Experiment: Inhibitory activity against bovine Chymotrypsinogen expressed as inhibitory constant

Ki: 1350 µM
SMILES: CCCCc1c(C)oc(=O)c(CCCC)c1O
